These results are taken from patent US20060194699A1, “Sprayable non-aqueous, oil-continuous microemulsions and methods of making same” (priority 2003, published 2006).

Each structure is given as a SMILES string. Where two headings read alike, the source gives them in different places.

The conditions of data set [1]: cited from earlier work.
The conditions of data set [2]: cited from earlier work. This is another data set of the same source.
Another data set is described as follows: Solubility. The class given is physicochemical. The conditions noted are these: 25° C. and pH 4.3.

For `O=C(O)CNCP(=O)(O)O` [glyphosate, N-phosphonomethylglycine], in data set [1], the “pKa (first of three printed)” value is listed as 2.74, the “pKa (second of three printed)” value is listed as 5.63 and the “pKa (third of three printed)” value is on record as 10.18. For the same molecule, the solubility in water in data set [2] (25° C.) was 11.6 grams per liter of water. In data set [2] (acetone, alcohol and xylene), the “solubility in common organic solvents” value was “insoluble”.

As to `CC(C)N.O=C(O)CNCP(=O)(O)O` [isopropylamine salt of glyphosate], in “Solubility” (per 1000 g water), the “solubility in water as equivalent PMG-acid” value is on record as 778 grams of equivalent PMG-acid per liter. In addition, the “weight percent "acid" in the saturated solution” value in the data set “Solubility” (saturated aqueous solution) is reported as 37.95%. Also, the solubility in water in data set [2] (25° C. and pH 4.3) is recorded as 1050 grams of salt in a liter of water.
